Here are results for 22 compounds from US10450301B2, “Apoptosis signal-regulating kinase 1 inhibitors and methods of use thereof” (ENANTA PHARMACEUTICALS, INC., priority 2017, dated 2019).

For the assay, the target named is ASK1 (Homo sapiens (Human), UniProt Q99683). In words: HTRF KinEASE Assay (TR-FRET, STK3 peptide substrate), inhibition of ASK1. Conditions: 5 nM ASK1 kinase, 1 μM STK3 peptide substrate, 100 μM ATP, 3 hours; compound 0 to 10 μM. It is filed as biochemical. On the procedure:
Assay HTRF® KinEASE™ Assay
ASK1 was purchased from Thermofisher (Catalogue # PV4011), ATP was purchased from Sigma (Catalogue # A7699), HI-TRF® KinEASE™ Assay System was obtained from Cisbio (Bedford, Mass.). […] HTRF® KinEASE™-STK is a generic method for measuring serine/threonine kinase activities using a time-resolved fluorescence resonance energy transfer (TR-FRET) immunoassay. […] 100 Um ATP is added to start kinase reaction and incubated for 3 hours. The STK3-antibody labeled with Eu^3+-Cryptate and 125 Nm streptavidin-XL665 are mixed in a single addition with stop reagents provided by the Cisbio kit used to stop the kinase reaction. […] The resulting TR-FRET is proportional to the phosphorylation level. Staurosporine was used as the positive control. IC50 was determined by Xlfit 5.3.
By using above method, the inhibition of ASK1 was evaluated for the compounds of Formula (I).
A general note: Time-resolved FRET reads energy transfer from a long-lived donor to a nearby acceptor.

ASK1, sequence (Q99683 whole entry): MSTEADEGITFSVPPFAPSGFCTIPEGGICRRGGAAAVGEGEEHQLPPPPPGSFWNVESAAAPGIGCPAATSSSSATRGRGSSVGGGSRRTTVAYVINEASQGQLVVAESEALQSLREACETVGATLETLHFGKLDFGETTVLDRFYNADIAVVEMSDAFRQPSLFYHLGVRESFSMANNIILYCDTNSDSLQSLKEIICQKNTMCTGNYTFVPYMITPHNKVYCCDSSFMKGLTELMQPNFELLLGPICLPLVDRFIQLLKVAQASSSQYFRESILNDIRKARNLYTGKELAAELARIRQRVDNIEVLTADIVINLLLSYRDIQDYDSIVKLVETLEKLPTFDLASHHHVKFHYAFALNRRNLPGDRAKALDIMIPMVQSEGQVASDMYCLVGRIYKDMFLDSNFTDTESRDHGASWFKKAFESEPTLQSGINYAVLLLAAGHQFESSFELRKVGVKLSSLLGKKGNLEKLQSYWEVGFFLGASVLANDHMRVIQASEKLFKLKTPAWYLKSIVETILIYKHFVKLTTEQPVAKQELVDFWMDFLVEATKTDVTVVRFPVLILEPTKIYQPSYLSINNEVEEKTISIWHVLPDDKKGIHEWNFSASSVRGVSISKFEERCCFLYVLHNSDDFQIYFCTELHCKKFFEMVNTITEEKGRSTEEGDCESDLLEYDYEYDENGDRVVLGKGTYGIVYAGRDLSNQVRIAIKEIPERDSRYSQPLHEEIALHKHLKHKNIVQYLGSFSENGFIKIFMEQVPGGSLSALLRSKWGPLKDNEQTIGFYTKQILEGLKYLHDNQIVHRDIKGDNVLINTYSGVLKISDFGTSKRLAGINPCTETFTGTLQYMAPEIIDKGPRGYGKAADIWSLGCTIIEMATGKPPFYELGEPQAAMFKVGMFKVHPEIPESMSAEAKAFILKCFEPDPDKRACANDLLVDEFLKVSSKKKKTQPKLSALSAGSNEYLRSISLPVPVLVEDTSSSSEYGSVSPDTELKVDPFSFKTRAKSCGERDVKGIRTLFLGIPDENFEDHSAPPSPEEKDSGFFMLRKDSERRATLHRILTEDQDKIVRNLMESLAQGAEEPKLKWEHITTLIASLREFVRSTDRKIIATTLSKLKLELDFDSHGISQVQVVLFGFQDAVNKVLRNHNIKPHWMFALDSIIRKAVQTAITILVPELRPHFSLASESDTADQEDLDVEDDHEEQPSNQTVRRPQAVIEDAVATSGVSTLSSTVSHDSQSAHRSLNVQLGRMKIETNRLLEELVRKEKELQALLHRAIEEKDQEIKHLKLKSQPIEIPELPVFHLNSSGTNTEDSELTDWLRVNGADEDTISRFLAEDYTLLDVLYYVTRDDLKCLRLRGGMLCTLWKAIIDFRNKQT

Turning to `CCN1CCN(C(=O)N2CCc3cc(F)c(C(=O)Nc4cccc(-c5nnnn5C(C)C)n4)cc3C2)C(=O)C1=O` [Example 90], the IC50 was in the range of 10 to 100 nM.
To `CC(C)n1nnnc1-c1cccc(NC(=O)c2cc3c(cc2F)CCN(C(=O)N2CCN(C)CC2)C3)n1` [Example 91] belongs 10 to 100 nM; to `CC(C)n1nnnc1-c1cccc(NC(=O)c2cc3c(cc2F)CCN(C(=O)N2CCOCC2)C3)n1` [Example 92], 10 to 100 nM; to `CC(C)n1nnnc1-c1cccc(NC(=O)c2cc3c(cc2F)CCN(C(=O)N2CCCC2)C3)n1` [Example 93], 10 to 100 nM.
On to `CCN(CC)C(=O)N1CCc2cc(F)c(C(=O)Nc3cccc(-c4nnnn4C(C)C)n3)cc2C1` [Example 94], for which the IC50 lay in the range of 1 to 10 nM.
To `CCN(C)C(=O)N1CCc2cc(F)c(C(=O)Nc3cccc(-c4nnnn4C(C)C)n3)cc2C1` [Example 95] belongs 10 to 100 nM.
Compound `CC(C)n1nnnc1-c1cccc(NC(=O)c2cc3c(cc2F)CCN(C(=O)N(C)C)C3)n1` [Example 96] came in with an IC50 of 10 to 100 nM.
To `CC(C)n1nnnc1-c1cccc(NC(=O)c2cc3c(cc2F)CCN(C(=O)C2CCCC2)C3)n1` [Example 97] belongs 10 to 100 nM.
For `CCN1CCc2cc(F)c(C(=O)Nc3cccc(-c4nnnn4C(C)C)n3)cc2C1=O` [Example 98, 2-ethyl-6-fluoro-N-(6-(1-isopropyl-1H-tetrazol-5-yl)pyridin-2-yl)-1-oxo-1,2,3,4-tetrahydroisoquinoline-7-carboxamide] the value was more than 1000 nM; for `CC(C)c1nnnn1-c1cccc(NC(=O)c2cc3c(cc2F)CCN(C(=O)N(C)CCC(F)(F)F)C3)n1` [Example 99], 100 to 1000 nM; for `CC(C)c1nnnn1-c1cccc(NC(=O)c2cc3c(cc2F)CCN(S(=O)(=O)CCC(F)(F)F)C3)n1` [Example 100], more than 1000 nM.
In the case of `CCN(C)C(=O)N1CCc2cc(F)c(C(=O)Nc3cccc(-n4nnnc4C(C)C)n3)cc2C1` [Example 101], the IC50 was more than 1000 nM.
For the compound `CC(C)n1nnnc1-c1cccc(NC(=O)c2cc3c(cc2F)CCN(S(=O)(=O)CC2CC(F)(F)C2)C3)n1` [Example 102], the IC50 is 10 to 100 nM.
For `CC(C)n1nnnc1-c1cccc(NC(=O)c2cc3c(cc2F)CCN(S(=O)(=O)CC(F)F)C3)n1` [Example 103] the value was 10 to 100 nM; for `CC(C)n1nnnc1-c1cccc(NC(=O)c2cc3c(cc2F)CCN(C(=O)N2CCS(=O)(=O)CC2)C3)n1` [Example 104], 10 to 100 nM; for `CC(C)n1nnnc1-c1cccc(NC(=O)c2cc3c(cc2F)CCN(C(=O)N2CCSCC2)C3)n1` [Example 105], 10 to 100 nM.
Compound `CC(C)n1nnnc1-c1cccc(NC(=O)c2cc3c(cc2F)CCN(C(=O)N2C[C@@H](C)O[C@@H](C)C2)C3)n1` [Example 106] had an IC50 of 10 to 100 nM.
To `CC(C)n1nnnc1-c1cccc(NC(=O)c2cc3c(cc2F)CCN(C(=O)N(C)CCC(F)(F)F)C3)n1` [Example 107] belongs 10 to 100 nM; to `CC1c2cc(C(=O)Nc3cccc(-c4nnnn4C(C)C)n3)c(F)cc2CCN1CC(=O)N1CCCC1` (stereo not shown) [Example 108, 6-fluoro-N-(6-(1-isopropyl-1H-tetrazol-5-yl)pyridin-2-yl)-1-methyl-2-(2-oxo-2-(pyrrolidin-1-yl)ethyl)-1,2,3,4-tetrahydroisoquinoline-7-carboxamide], 100 to 1000 nM.
To `CC(=O)OC[C@@H](C)n1nnnc1-c1cccc(NC(=O)c2cc3c(cc2F)CCN(C(=O)OCc2ccccc2)C3)n1` [Example 109] belongs more than 1000 nM.
To `CC(C)n1nnnc1-c1cccc(NC(=O)c2cc3c(cn2)CCN(S(=O)(=O)C2CC2)C3)n1` [Example 110, 6-(cyclopropylsulfonyl)-N-(6-(1-isopropyl-1H-tetrazol-5-yl)pyridin-2-yl)-5,6,7,8-tetrahydro-2,6-naphthyridine-3-carboxamide] belongs 1 to 10 nM; to `CC(C)n1nnnc1-c1cccc(NC(=O)c2cc3c(cn2)CCN(S(=O)(=O)N(C)C)C3)n1` [Example 111], 10 to 100 nM.

As a reminder, the IC50 is the concentration needed to halve the response being measured. Read a high IC50 as weaker potency in that assay.
